What was measured:
[1] = molecular target: T1, Kappa-type opioid receptor (Rattus norvegicus, UniProt P34975); test: Inhibition of [3H]diprenorphine binding to rat opioid receptor kappa 1 expressed in HEK 293 cells; format: cell-based, HEK293
Rattus norvegicus [2] = organism: Rattus norvegicus; test: Emax value against intracellular calcium mobilization in rat; format: functional
Rattus norvegicus [3] = organism: Rattus norvegicus; test: Effective concentration of compound against intracellular calcium mobilization in rat; format: functional
[4] = molecular target: T1, Kappa-type opioid receptor; test: biochemical; format: cell-based, HEK293
Description: Inhibition of [3H]U-69593 binding to rat opioid receptor kappa 1 expressed in HEK 293 cells

T1 sequence (P34975 whole entry): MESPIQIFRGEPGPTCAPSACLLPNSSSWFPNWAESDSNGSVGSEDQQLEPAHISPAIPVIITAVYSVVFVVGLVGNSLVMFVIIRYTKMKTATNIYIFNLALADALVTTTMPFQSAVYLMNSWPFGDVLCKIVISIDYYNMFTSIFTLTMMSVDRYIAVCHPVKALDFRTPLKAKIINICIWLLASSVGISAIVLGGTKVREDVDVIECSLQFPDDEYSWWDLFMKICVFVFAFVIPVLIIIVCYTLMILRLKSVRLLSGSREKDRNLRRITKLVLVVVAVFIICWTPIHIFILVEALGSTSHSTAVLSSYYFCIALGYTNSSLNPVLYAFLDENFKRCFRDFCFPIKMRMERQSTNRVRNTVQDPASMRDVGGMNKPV

SMILES | Ki [1] | Emax (Rattus norvegicus [2]) | EC50 (Rattus norvegicus [3]) | Ki [4]
COC(=O)C1=C[C@H](OC(C)=O)[C@H](O)[C@@H]2[C@@]3(C)C[C@@H](c4ccoc4)OC(=O)[C@@H]3CC[C@@]12C | > 10000 nM |  |  | 
COC(=O)[C@@H]1C[C@H](OC(C)=O)C(=O)[C@H]2[C@@]1(C)CC[C@H]1C(=O)O[C@H](C3CCOC3)C[C@]21C (some centres undefined) |  | 108% | 126 nM | 156 nM
COC(=O)[C@@H]1C[C@H](OC(C)=O)[C@H](O)[C@H]2[C@@]1(C)CC[C@H]1C(=O)O[C@H](c3ccoc3)C[C@]21C [1-ALPHA-HYDROXYSALVINORIN A] |  |  |  | 1130 nM
COC(=O)[C@@H]1C[C@H](OC(C)=O)C(=O)[C@@H]2[C@@]3(C)C[C@@H](c4ccoc4)OC(=O)[C@H]3CC[C@]21C [SALVINORIN A (ESTER)] |  | 78% | 244 nM | 
COC(=O)C1=C[C@H](OC(C)=O)[C@H](OC(C)=O)[C@@H]2[C@@]3(C)C[C@@H](c4ccoc4)OC(=O)[C@@H]3CC[C@@]12C |  |  |  | 1020 nM
COC(=O)[C@@H]1C[C@H](OC(C)=O)C(=O)[C@H]2[C@@]1(C)CC[C@H]1C(=O)O[C@H](c3ccoc3)C[C@]21C [SALVINORIN A] |  | 100% | 46 nM | 
COC(=O)[C@@H]1C[C@H](OC(C)=O)C[C@H]2[C@@]1(C)CC[C@H]1C(=O)O[C@H](c3ccoc3)C[C@]21C |  | 122% | 141 nM | 18 nM
COC(=O)[C@@H]1C[C@H](OC(C)=O)C(=O)[C@H]2[C@@]1(C)CCC1=CO[C@H](c3ccoc3)C[C@@]12C |  | 103% | 223 nM | 6 nM
COC(=O)[C@@H]1C[C@H](OC(C)=O)[C@H](OC(C)=O)[C@H]2[C@@]1(C)CC[C@H]1C(=O)O[C@H](c3ccoc3)C[C@]21C |  |  |  | > 10000 nM
COC(=O)[C@@H]1C[C@H](OC(C)=O)C(=O)[C@@H]2[C@@]3(C)C[C@@H](c4ccoc4)OC[C@@H]3CC[C@]21C |  | 103% | 223 nM | 6 nM
COC(=O)[C@@H]1C[C@H](OC=O)C(=O)[C@H]2[C@@]1(C)CC[C@H]1C(=O)O[C@H](c3ccoc3)C[C@]21C |  | 108% | 315 nM | 18 nM
COC(=O)C1=C[C@H](O)[C@H](OC(C)=O)[C@@H]2[C@@]3(C)C[C@@H](c4ccoc4)OC(=O)[C@@H]3CC[C@@]12C |  |  |  | > 10000 nM
COC(=O)[C@@H]1C[C@H](OC(C)=O)C(=O)[C@H]2[C@@]1(C)CC[C@H]1C(O)O[C@H](c3ccoc3)C[C@]21C (some centres undefined) |  | 107% | 78 nM | 59 nM
CC(=O)O[C@H]1C[C@@H](CO)[C@]2(C)CC[C@H]3C(=O)O[C@H](c4ccoc4)C[C@]3(C)[C@H]2C1=O |  |  | > 10000 nM | 347 nM

Source: ChEMBL document CHEMBL1141168, “Studies toward the pharmacophore of salvinorin A, a potent kappa opioid receptor agonist” (J Med Chem, 2005)
